Measurements: patent publication US20230340607A1, “COMPOSITIONS AND METHODS FOR DETECTING GENE FUSIONS OF RAD51AP1 AND DYRK4 AND FOR DIAGNOSING AND TREATING CANCER” (UNIVERSITY OF PITTSBURGH-OF THE COMMONWEALTH SYSTEM OF …, priority 2020, published 2023)
“Also recorded” adds a separate entry of the source.

How the values were obtained:
Type in all cases: cell-based, human
[1] = system: HCC1937 cells; assay: Clonogenic assay, HCC1937 cells; settings: HCC1937 overexpressing RAD51AP1-DYRK4, compared to MCF7, HCC38, HCC1428, and ZR-75-30 cell lines
Method: (§1) Since MDAMB361 is a HER2 positive cell line we also assessed the therapeutic effect of lapatinib treatment alone or in combination with trametinib.
(§2) Clonogenic assay. The E9-E2 and wtRAD51AP1 expressing T47D cells were seeded at a density of 1000 cells/well in a 6-well plate with or without 200 ng/ml doxycycline treatment and incubated for 14-21 days. The colonies were stained with 0.5% crystal violet in 50% ethanol and counted using GelCount (Oxford Optronix Ltd.). The Trametinib (MEKi) and Lapatinib (EGFR/HER2 inhibitor) used for in vitro therapeutic studies were purchased from Selleck Chemicals. To test their therapeutic effects in the engineered T47D cells and other cell lines, cells (5000-10000, depending on the doubling time) were plated in 24-well for 24 hours prior to treatment with growth media containing trametinib, lapatinib or DMSO was replaced every 4 days for approximately 2 weeks. After this, cells were stained with 0.5% crystal violet in water containing 50% ethanol for 15 minutes at room temperature. The area and intensity of each well was measured using Image J. with Colony Area Plug In.

[2] = system: MDAMB361 cells; assay: Clonogenic assay, MDAMB361 cells
Method: as §1, §2

[3] = system: HER2/PI3K/AKT/Raptor activation; assay: Western blot of engineered T47D cells after trametinib: HER2/PI3K/AKT/Raptor; settings: 0.5uM trametinib, 24 hours
Method: (§3) Compensative HER2/PI3K/AKT and MAP3K1/JNK/JUN activation has been reported to mediate resistance to MEK inhibitors (Avivar-Valderas, A. et al. (2018); Maher, C.A. et al. (2009)). We thus examined if RAD51AP1-DYRK4 and wtRAD51AP1 differentially modulate these survival pathways following MEK inhibition. To test this, we treated the engineered T47D cells with 0.5uM of trametinib or vehicle for 24 hours, to assess the early signaling changes following trametinib treatment. […] In contrast, this compensatory signaling was activated in T47D cells overexpressing wtRAD51AP1 following MEK inhibition (FIG. 7A). In addition, RAD51AP1-DYRK4 also repressed MAP3K1 protein level and JNK-JUN phosphorylation under MEK inhibition.
(§4) Western blot. For immunoblot analysis, E9-E2 and wtRAD51AP1 expression was induced in transduced T47D cells with 200 ng/ml doxycycline for one week. Total proteins were extracted by homogenizing the cells in RIPA Lysis Buffer (Sigma-Aldrich), supplemented with complete protease inhibitor cocktail tablet (Roche Diagnostics), 50 mM beta-Glycerophosphate, 1 mM sodium orthovanadate, 1 mM sodium fluoride, and 1 mM PMSF. Thirty micrograms of protein extracts were denatured in sample buffer, separated by SDS-PAGE, and transferred onto a nitrocellulose membrane (Invitrogen). The membranes were blocked and incubated overnight at 4° C. with primary antibodies. […]

[4] = system: MAP3K1 protein level and JNK-JUN phosphorylation; assay: Western blot of engineered T47D cells after trametinib: MAP3K1/JNK/JUN; settings: 0.5uM trametinib, 24 hours
Method: as §3, §4

[5] = system: T47D cells inducibly expressing wtRAD51AP1; assay: Clonogenic assay, T47D cells inducibly expressing wtRAD51AP1; settings: induction of wtRAD51AP1 expression
Method: (§5) Next, the sensitivity of the engineered T47D cells inducibly expressing RAD51AP1-DYRK4 or wtRAD51AP1 to MEK inhibition was assessed. The first FDA approved MEK inhibitor currently under phase II clinical trial for triple negative breast cancer (NCI 9455) called Trametinib was used for MEK inhibition. MEK inhibition requires longer term drug exposure to exert therapeutic effect (Xue, Z. et al. (2018)). Therefore, clonogenic assays on the T47D models were performed to assess the cell viability following trametinib treatment in the presence or absence of doxycycline induction. Since T47D cells express EGFR, the cells were also treated with lapatinib to observe the combinatory effect.
Clonogenic assay. The E9-E2 and wtRAD51AP1 expressing T47D cells were seeded at a density of 1000 cells/well in a 6-well plate with or without 200 ng/ml doxycycline treatment and incubated for 14-21 days. The colonies were stained with 0.5% crystal violet in 50% ethanol and counted using GelCount (Oxford Optronix Ltd.). The Trametinib (MEKi) and Lapatinib (EGFR/HER2 inhibitor) used for in vitro therapeutic studies were purchased from Selleck Chemicals. […] The area and intensity of each well was measured using Image J. with Colony Area Plug In.

[6] = system: T47D cells inducibly expressing RAD51AP1-DYRK4 (E9-E2); assay: Clonogenic assay, T47D cells inducibly expressing RAD51AP1-DYRK4 (E9-E2)
Method: as §5, §2

[7] = T47D cells overexpressing RAD51AP1-DYRK4

Compound	sensitivity to trametinib treatment (clonogenic assay) [1]	sensitivity to trametinib treatment (clonogenic assay) ([2]; MDAMB361 overexpressing RAD51AP1-DYRK4, compared to MCF7, HCC38, HCC1428, and ZR-75-30 cell lines)	HER2/PI3K/AKT/Raptor activation under MEK inhibition (Western blot) [3, 7]	compensatory HER2/PI3K/AKT/Raptor signaling following MEK inhibition (Western blot) ([3]; T47D cells overexpressing wtRAD51AP1)	MAP3K1/JNK/JUN signaling following MEK inhibition (Western blot) ([4]; T47D cells ectopically expressing wtRAD51AP1)	MAP3K1 protein level and JNK-JUN phosphorylation under MEK inhibition (Western blot) [4, 7]	increased sensitivity to trametinib (clonogenic assay, cell viability) [5]	increased sensitivity to trametinib (clonogenic assay, cell viability) ([5]; listed as Trametinib)	sensitivity to trametinib (clonogenic assay, cell viability) ([6]; T47D cells, doxycycline-induced ectopic RAD51AP1-DYRK4 (E9-E2) expression vs absence of induction)	therapeutic effect of lapatinib alone (clonogenic assay) ([2]; MDAMB361, HER2 positive)	therapeutic effect of lapatinib in combination with trametinib (clonogenic assay) ([2]; MDAMB361, combination with trametinib)	therapeutic benefit of lapatinib alone (clonogenic assay) ([6]; engineered T47D cells)	therapeutic benefit of lapatinib in combination with trametinib (clonogenic assay) ([6]; engineered T47D cells, combination with trametinib)
CC(=O)Nc1cccc(-n2c(=O)n(C3CC3)c(=O)c3c(Nc4ccc(I)cc4F)n(C)c(=O)c(C)c32)c1 [trametinib]	markedly higher sensitivity	markedly higher sensitivity	attenuates	activated; also recorded: compensatory activation	did not observe activation	repressed	not observed	not	significantly increased sensitivity				
CS(=O)(=O)CCNCc1ccc(-c2ccc3ncnc(Nc4ccc(OCc5cccc(F)c5)c(Cl)c4)c3c2)o1 [lapatinib, Lapatinib]										highly resistant; also recorded: resistance	highly sensitive	did not result in additional therapeutic benefits; also recorded: did not show additional therapeutic benefits	did not result in additional therapeutic benefits; also recorded: did not show additional therapeutic benefits
